According to patent US20070117743A1, “New antitumoral compounds” (priority 2003, published 2007):
Where a SMILES comes first, the peptide text is derived from it. Bridges are numbered along the chain shown (N, C = ends). [ ]: non-standard residue; d: D form. The star is where a group is joined. d(aIle) = CC[C@H](C)[C@@H](N)C(=O)O; d(aThr) = C[C@@H](O)[C@@H](N)C(=O)O; Hexanoyl(5-Me) = CC(C)CCCC(=O)*; Orn = NCCC[C@H](N)C(=O)O; Dhb = C/C=C(\N)C(=O)O

Legend:
Format in all cases: cell-based, human
[1] = test system: A-549; test: SRB colorimetric assay of cell growth and viability, A-549; conditions: 48 hours exposure; for GI50: read-out: GI50 A-549; for CC50: read-out: LC50 A-549
[2] = test system: SK-MEL-28; test: SRB colorimetric assay of cell growth and viability, SK-MEL-28; conditions: 48 hours exposure; for CC50: read-out: LC50 MEL-28
[3] = test system: HT-29; test: SRB colorimetric assay of cell growth and viability, HT-29; conditions: 48 hours exposure; for GI50: read-out: GI50 HT-29; for CC50: read-out: LC50 HT-29
[4] = test system: LoVo; test: SRB colorimetric assay of cell growth and viability, LoVo; conditions: 48 hours exposure; for CC50: read-out: LC50 LOVO
[5] = test system: LoVo-Dox; test: SRB colorimetric assay of cell growth and viability, LoVo-Dox; conditions: 48 hours exposure; for CC50: read-out: LC50 LOVO-DOX
Method in brief: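 48 h continuous exposure, 10 to 10^−8 μg/mL; 5×10^3 cells/well, 18 h attachment; TCA fix, 0.4% SRB, OD 490 nm. Triplicates; GI, TGI, LC derived.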

[6] = test system: DU-145; test: SRB colorimetric assay of cell growth and viability, DU-145; conditions: 48 hours exposure
[7] = test system: IGROV-1; test: SRB colorimetric assay of cell growth and viability, IGROV-1; conditions: 48 hours exposure
[8] = test system: IGROV-ET; test: SRB colorimetric assay of cell growth and viability, IGROV-ET; conditions: 48 hours exposure; for CC50: read-out: LC50 IGROV-ET
[9] = test system: HeLa; test: SRB colorimetric assay of cell growth and viability, HeLa; conditions: 48 hours exposure; for CC50: read-out: LC50 HELA
[10] = test system: HeLa-APL; test: SRB colorimetric assay of cell growth and viability, HeLa-APL; conditions: 48 hours exposure; for CC50: read-out: LC50 HELA-APL
[11] = test system: K-562; test: SRB colorimetric assay of cell growth and viability, K-562; conditions: 48 hours exposure; for CC50: read-out: LC50 K-562
[12] = test system: PANC-1; test: SRB colorimetric assay of cell growth and viability, PANC-1; conditions: 48 hours exposure; for CC50: read-out: LC50 PANC-1

SMILES | TGI A-549 [1] | GI50 [1] | CC50 [1] | GI50 [2] | TGI MEL-28 [2] | CC50 [2] | TGI HT-29 [3] | GI50 [3] | CC50 [3] | GI50 [4] | TGI LOVO [4] | CC50 [4] | GI50 [5] | TGI LOVO-DOX [5] | CC50 [5] | GI50 [6] | LC50 (concentration causing 50% net cell kill) [6] | TGI DU-145 [6] | GI50 [7] | LC50 (concentration causing 50% net cell killing) [7] | also measured
C/C=C1\NC(=O)[C@H](Cc2ccccc2)NC(=O)[C@@H](C(C)C)NC(=O)[C@@H]([C@@H](C)CC)NC(=O)[C@H](NC(=O)[C@H](NC(=O)[C@H](CCCN)NC(=O)[C@H]2CCCN2C(=O)[C@H](NC(=O)[C@@H](NC(=O)[C@H](C)NC(=O)CCCC(C)C)C(C)C)C(C)C)[C@@H](C)CC)[C@@H](C)OC(=O)[C@H](C(C)C)NC1=O [Compound 52, [Ala^12, noD-Val^13]-KF] ({Hexanoyl(5-Me)}-AV[dV][dP][Orn][d(aIle)][d(aThr)][d(aIle)][dV]F[Dhb]V; ester 7-C) | 7.41E−06 Molar | 7.41 µM | 7.41 µM | 7.41 µM | 7.41E−06 Molar | 7.41 µM | 7.41E−06 Molar | 7.41 µM | 7.41 µM | 7.41 µM | 7.41E−06 Molar | 7.41 µM | 7.41 µM | 7.41E−06 Molar | 7.41 µM | 7.41 µM | 7.41 µM | 7.41E−06 Molar | 7.41 µM | 7.41 µM | TGI IGROV [7]: 7.41E−06 Molar; GI50 [8]: 3.67 µM; TGI IGROV-ET [8]: 7.41E−06 Molar; CC50 [8]: 7.41 µM; GI50 [9]: 6.18 µM; TGI HELA [9]: 7.41E−06 Molar; CC50 [9]: 7.41 µM; GI50 [10]: 0.0179 µM; TGI HELA-APL [10]: 7.41E−06 Molar; CC50 [10]: 7.41 µM; GI50 [11]: 7.41 µM; TGI K-562 [11]: 7.41E−06 Molar; CC50 [11]: 7.41 µM; GI50 [12]: 6.64 µM; TGI PANC-1 [12]: 7.41E−06 Molar; CC50 [12]: 7.41 µM
C/C=C1\NC(=O)[C@H](Cc2ccccc2)NC(=O)[C@@H](C(C)C)NC(=O)[C@@H]([C@@H](C)CC)NC(=O)[C@H](NC(=O)[C@H](NC(=O)[C@H](CCCN)NC(=O)[C@H]2CCCN2C(=O)[C@H](NC(=O)[C@@H](NC(=O)[C@@H](NC(=O)[C@@H](NC(=O)CCCC(C)C)C(C)C)[C@@H](C)O)C(C)C)C(C)C)[C@@H](C)CC)[C@@H](C)OC(=O)[C@H](C(C)C)NC1=O [Compound 38, [Val^13]-KF] | 9.88E−07 Molar | 0.307 µM | 2.44 µM | 0.805 µM | 1.68E−06 Molar | 3.55 µM | 2.12E−06 Molar | 1.16 µM | 3.88 µM | 1.29 µM | 2.40E−06 Molar | 4.47 µM | 1.12 µM | 1.94E−06 Molar | 3.36 µM | 1.66 µM | 4.22 µM | 2.65E−06 Molar | 1.01 µM | 3.53 µM | TGI IGROV [7]: 1.89E−06 Molar; GI50 [8]: 1.97 µM; TGI IGROV-ET [8]: 2.97E−06 Molar; CC50 [8]: 4.49 µM; GI50 [9]: 0.046 µM; TGI HELA [9]: 1.55E−07 Molar; CC50 [9]: 0.583 µM; GI50 [10]: 1.85 µM; TGI HELA-APL [10]: 2.88E−06 Molar; CC50 [10]: 4.49 µM; GI50 [11]: 1.28 µM; TGI K-562 [11]: 2.28E−06 Molar; CC50 [11]: 4.05 µM; GI50 [12]: 0.0254 µM; TGI PANC-1 [12]: 1.20E−07 Molar; CC50 [12]: 0.988 µM
C/C=C1\NC(=O)[C@H](Cc2ccccc2)NC(=O)[C@@H](C(C)C)NC(=O)[C@@H]([C@@H](C)CC)NC(=O)[C@H](NC(=O)[C@H](NC(=O)[C@H](CCCN)NC(=O)[C@H]2CCCN2C(=O)[C@H](NC(=O)[C@@H](NC(=O)[C@@H](NC(=O)[C@@H](Cc2ccccc2)NC(=O)CCCC(C)C)[C@@H](C)O)C(C)C)C(C)C)[C@@H](C)CC)[C@@H](C)OC(=O)[C@H](C(C)C)NC1=O [Compound 36, [D-Phe^13]-KF] | 5.14E−08 Molar | 0.00481 µM | 0.99 µM | 0.154 µM | 7.21E−07 Molar | 2.2 µM | 1.21E−06 Molar | 0.398 µM | 2.84 µM | 0.136 µM | 9.63E−07 Molar | 2.44 µM | 0.3 µM | 9.63E−07 Molar | 2.15 µM | 0.266 µM | 2.49 µM | 6.75E−07 Molar | 0.144 µM | 2.5 µM | TGI IGROV [7]: 9.90E−07 Molar; GI50 [8]: 0.852 µM; TGI IGROV-ET [8]: 1.74E−06 Molar; CC50 [8]: 3.55 µM; GI50 [9]: 0.00786 µM; TGI HELA [9]: 9.50E−08 Molar; CC50 [9]: 0.701 µM; GI50 [10]: 0.0819 µM; TGI HELA-APL [10]: 6.55E−06 Molar; CC50 [10]: 6.55 µM; GI50 [11]: 0.42 µM; TGI K-562 [11]: 1.25E−06 Molar; CC50 [11]: 2.9 µM; GI50 [12]: 0.00662 µM; TGI PANC-1 [12]: 2.73E−08 Molar; CC50 [12]: 0.976 µM
C/C=C1\NC(=O)[C@H](Cc2ccccc2)NC(=O)[C@@H](C(C)C)NC(=O)[C@@H]([C@@H](C)CC)NC(=O)[C@H](NC(=O)[C@H](NC(=O)[C@H](CCCN)NC(=O)[C@H]2CCCN2C(=O)[C@H](NC(=O)[C@@H](NC(=O)[C@@H]2CCCN2C(=O)CCCC(C)C)C(C)C)C(C)C)[C@@H](C)CC)[C@@H](C)OC(=O)[C@H](C(C)C)NC1=O [Compound 55, [Pro^12, noD-Val^13]-KF] ({Hexanoyl(5-Me)}-PV[dV][dP][Orn][d(aIle)][d(aThr)][d(aIle)][dV]F[Dhb]V; ester 7-C) | 7.27E−06 Molar | 7.27 µM | 7.27 µM | 7.27 µM | 7.27E−06 Molar | 7.27 µM | 7.27E−06 Molar | 7.27 µM | 7.27 µM | 7.27 µM | 7.27E−06 Molar | 7.27 µM | 7.27 µM | 7.27E−06 Molar | 7.27 µM | 7.27 µM | 7.27 µM | 7.27E−06 Molar | 7.27 µM | 7.27 µM | TGI IGROV [7]: 7.27E−06 Molar; GI50 [8]: 7.27 µM; TGI IGROV-ET [8]: 7.27E−06 Molar; CC50 [8]: 7.27 µM; GI50 [9]: 7.27 µM; TGI HELA [9]: 7.27E−06 Molar; CC50 [9]: 7.27 µM; GI50 [10]: 7.27 µM; TGI HELA-APL [10]: 7.27E−06 Molar; CC50 [10]: 7.27 µM; GI50 [11]: 7.27 µM; TGI K-562 [11]: 7.27E−06 Molar; CC50 [11]: 7.27 µM; GI50 [12]: 7.27 µM; TGI PANC-1 [12]: 7.27E−06 Molar; CC50 [12]: 7.27 µM
